Laboratory results taken from the NIST ThermoML archive (doi:10.1021/je1007197).
Where “and” joins values, the source holds several entries; their conditions need not be identical. Equal entries are not always repeated.

Conditions: Liquid, Hot wire method

CCCCOCCO [2-butoxyethan-1-ol]
thermal conductivity
Conditions | 304.15 K | 321.15 K | 338.15 K
100 kPa | 0.1529 W/m/K and 0.1533 W/m/K | 0.1497 W/m/K and 0.1496 W/m/K | 0.1461 W/m/K and 0.1463 W/m/K
16400 kPa | 0.1579 W/m/K | 0.1548 W/m/K | 0.1518 W/m/K
27300 kPa | 0.1612 W/m/K | 0.1585 W/m/K | 0.1555 W/m/K
41800 kPa | 0.1646 W/m/K | 0.1628 W/m/K | 0.1601 W/m/K
56100 kPa | 0.1689 W/m/K | 0.1665 W/m/K | 0.164 W/m/K
70200 kPa | 0.1722 W/m/K | 0.1701 W/m/K | 0.1677 W/m/K
79000 kPa | 0.174 W/m/K | – | –
83500 kPa | 0.1749 W/m/K | – | –
84200 kPa | – | 0.1739 W/m/K | 0.1717 W/m/K
98200 kPa | 0.1785 W/m/K | 0.177 W/m/K | 0.1751 W/m/K
108700 kPa | – | – | 0.1775 W/m/K
112200 kPa | 0.182 W/m/K | 0.18 W/m/K | –
123400 kPa | – | – | 0.1807 W/m/K
124100 kPa | 0.1836 W/m/K | – | –
126200 kPa | – | 0.183 W/m/K | –
134900 kPa | – | 0.1851 W/m/K | –
140100 kPa | 0.187 W/m/K | – | 0.1844 W/m/K
149200 kPa | 0.1885 W/m/K | – | –
150600 kPa | – | 0.1879 W/m/K | –
